From patent US6545033B1, “Fused 1-(2,6-dichloro-4-trifluoromethylphenyl)-pyrazoles, the synthesis thereof and the use thereof as pesticides” (3-Dimensional Pharmaceuticals, Inc., priority 1999, dated 2003) come the findings set out here.

A value given as a limit tells only on which side of the number the result lay.

One test deals with T1, Housefly GABA receptors (Musca domestica, UniProt Q75NA5).
T1 sequence (Q75NA5 30-576): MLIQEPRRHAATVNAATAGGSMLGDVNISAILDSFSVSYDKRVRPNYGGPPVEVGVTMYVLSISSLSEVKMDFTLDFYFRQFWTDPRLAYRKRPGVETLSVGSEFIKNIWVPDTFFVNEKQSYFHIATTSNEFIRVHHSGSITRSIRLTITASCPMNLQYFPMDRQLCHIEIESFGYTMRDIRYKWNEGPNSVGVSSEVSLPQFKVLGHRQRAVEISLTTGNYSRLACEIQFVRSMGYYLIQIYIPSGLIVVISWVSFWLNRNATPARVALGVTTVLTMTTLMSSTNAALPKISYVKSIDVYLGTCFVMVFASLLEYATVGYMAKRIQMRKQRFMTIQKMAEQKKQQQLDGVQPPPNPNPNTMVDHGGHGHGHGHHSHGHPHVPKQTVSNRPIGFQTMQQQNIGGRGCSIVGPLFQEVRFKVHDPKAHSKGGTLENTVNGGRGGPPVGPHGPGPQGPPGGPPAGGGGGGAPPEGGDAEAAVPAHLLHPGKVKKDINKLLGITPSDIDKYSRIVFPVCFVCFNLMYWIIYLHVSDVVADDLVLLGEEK
The test is described as follows: In vitro assay of binding to housefly GABA receptors (3H-EBOB displacement, housefly neuronal membranes). The note with it: for Compounds with the most activity (housefly 3H-EBOB binding): housefly neuronal membranes. As to the method:
Newly emerged houseflies (Musca domestica, available from Rincon-Vitova Insectaries, Inc., Ventura, Calif.) were sedated with carbon dioxide gas, collected in 50 mL polypropylene conical tubes, and immediately frozen by submersion in liquid nitrogen. Unless specified, all of the following work was performed at 0-4° C. After removal from liquid nitrogen, the tubes of frozen houseflies were shaken vigorously by hand to decapitate the houseflies. […] Contaminating wings were removed by holding a vacuum nozzle approximately 4 cm above the heads, and contaminating legs were separated from the heads by passage through a #15 mesh screen. All remaining debris were removed from the pool of heads using forceps. The purified heads were collected in 50 mL polypropylene conical tubes and stored in liquid nitrogen until processed further.
About 13 g of purified housefly heads were suspended in about 65 mL of 10% sucrose buffer (10% sucrose (w/w) in 10 mM Tris, pH 7.5). The heads were homogenized for about 1 minute, using a Tissumizer™ homogenizer equipped with a SDT-100EN probe (available from Tekmar-Dohrmann, Cincinnati, Ohio) running at 70% of its maximum speed. The extract was further homogenized by about 5 passes through a 40 mL Dounce tissue grinder. The extract was then centrifuged at about 500×g for about 5 minutes to pellet large debris. The supernatant was collected; the pellet was washed with an additional 65 mL of 10% sucrose buffer and centrifuged at 500×g for about 5 minutes. The second supernatant was collected and combined with the first supernatant, and the pool was filtered through a 100μ CellMicroSieve™ mesh to remove residual debris (available from BioDesign of New York, Carmel, N.Y.).
Neuronal membranes containing active GABA receptors were collected via sucrose density centrifugation by the following method. About 8 mL of 35% sucrose buffer (35% sucrose (w/w) in 10 mM Tris, pH 7.5), were dispensed into each of six 38 mL ultracentrifuge tubes. These layers were overlaid with about 8 mL of 20% sucrose buffer (20% sucrose (w/w) in 10 mM Tris, pH 7.5), and finally overlaid with about 20 mL of filtered extract supernatant. The tubes were centrifuged at about 120,000×g for about 100 min at 4° C. After centrifugation, the 10% sucrose layer and most of the 20% sucrose layer were removed by aspiration. The membranes at the interface of the 20% sucrose and 35% sucrose layers were collected, pooled, diluted with 10% sucrose buffer, and centrifuged at about 120,000×g for about 40 min at 4° C. After centrifugation, the supernatant was discarded, and the pellets resuspended in about 6.5 mL of assay buffer (10 mM phosphate, 300 mM NaCl, pH 7.5) using a 10 mL Potter-Elvehjem tissue grinder with a Teflon® pestle. Protein concentration was determined by the Bio-Rad Protein Assay (available from Bio-Rad Laboratories, Hercules, Calif.) using bovine serum albumin as a standard. The membranes were aliquoted and stored in liquid nitrogen for up to 2 months before use.
Housefly neuronal membranes were prepared as described above from housefly heads. Test compounds were dissolved in dimethylsulfoxide (DMSO) at concentrations ranging from about 2 nM to about 100 mM. About 1 μL of a dissolved test compound was dispensed into a well of a 96-well polystyrene plate. About 100 μL of ice cold assay buffer (10 mM phosphate, 300 mM NaCl, pH 7.5) containing 5.2 nM 4′-Ethynyl-4-n-[2,3-^3H2]propylbicycloorthobenzoate (^3H-EBOB, 38 Ci/mmol, available from NEN Life Science Products, Boston, Mass.) was added to the well, followed by about 100 μL of ice cold assay buffer containing about 0.5-1.0 mg/mL housefly neuronal membranes. Control wells were prepared the same way except that the housefly neuronal membranes were omitted from the “negative” wells, and the test compounds were omitted from the “positive” wells. […]

The target in test [1] is Mouse Brain GABA Receptors. The test is described as follows: In vitro assay of binding to mouse brain GABA receptors (3H-EBOB displacement, mouse brain membranes). As to conditions: displacement of 5.2 nM 3H-EBOB, about 45 min at about 24° C. As to the method:
Mouse brains were obtained from carbon dioxide-asphyxiated Swiss-Webster mice, washed with phosphate-buffered saline, and used either fresh or after storage at −80° C. for up to 10 months. Unless specified, all preparation steps were performed at 0-4° C. For each preparation, 20 brains were suspended in about 40 mL of 0.32 M sucrose and homogenized for about 2 minutes, using a Tissumizer™ homogenizer equipped with a SDT-100EN probe (available from Tekmar-Dohrmann, Cincinnati, Ohio) running at 50% of its maximum speed. The extract was centrifuged for about 5 min at about 1000×g to pellet intact brain tissue. The supernatant was retained and the pellet washed with an additional 40 mL of 0.32 M sucrose and centrifuged at 1000×g for about 5 minutes. The 1000×g supernatants were combined and centrifuged at about 10,000×g for about 20 min to pellet membranes. The 10,000×g supernatant was discarded and the pellet was resuspended in about 20 mL of water containing 1 mM EDTA. The sample was dialyzed two times for about 3 hours each against about 3 L of water. The sample was then centrifuged at about 25,000×g for about 30 min to pellet the membranes. After centrifugation, the supernatant was discarded and the wet pellet recovered. The protein concentration of the pellet was determined by the Bio-Rad Protein Assay (available from Bio-Rad Laboratories, Hercules, Calif.) using bovine serum albumin as a standard. The membranes were aliquoted and stored at −80° C. for up to 6 months before use.
Mouse brain membranes were prepared as described above from dissected mouse brains. Test compounds were dissolved in dimethylsulfoxide (DMSO) at concentrations ranging from about 2 nM to about 100 mM. About 1 μL of a dissolved test compound was dispensed into a well of a 96-well polystyrene plate. About 100 μL of ice cold assay buffer (10 mM phosphate, 300 mM NaCl, pH 7.5) containing 5.2 nM 4′-Ethynyl-4-n-[2,3-^3H2]propylbicycloorthobenzoate (^3H-EBOB, 38 Ci/mmol, available from NEN Life Science Products, Boston, Mass.) was added to the well, followed by about 100 μL of ice cold assay buffer containing about 0.25-0.5 mg/mL mouse brain membranes. Control wells were prepared the same way except that the mouse brain membranes were omitted from the “negative” wells, and the test compounds were omitted from the “positive” wells. The samples were incubated for about 45 min at about 24° C. and then filtered on a 0.1% (w/v) polyethylenimine-soaked glass fiber Filtermat A (available from EG&G Wallac Inc., Gaithersburg, Md.) followed by four 100 mL rinses of cold assay buffer using a Harvester 96® cell harvester (available from Tomtec, Orange, Conn.). The filtermat was air dried and radioactivity bound to the filtermat was detected with either a 1450 MicroBeta® Trilux scintillation counter (available from EG&G Wallac Inc.) or a Topcount NXT™ scintillation counter (available from Packard Instrument Co., Meriden, Conn.) using standard methods.
Specific binding was considered to be the difference between total ^3H bound to the mouse brain membranes in the absence of any inhibitors and nonspecific ^3H bound to the mouse brain membranes upon the addition of 5 μM unlabeled EBOB. The average radioactivity contained in the “negative” wells was subtracted from each of the assay wells. […] Compounds that displaced ^3H-EBOB specifically bound to the mouse brain membranes were tested at 24-48 different final concentrations, varying from about 1 nM to about 125 μM, in order to determine the concentration at which 50% of the maximum inhibition due to the addition of that compound was observed (IC50). […]

The subject of test [2] is cat fleas (Ctenocephalides felis), CO Fleas. The test is described as follows: In vivo cat flea contact assay, CO fleas. The note with it: Ctenocephalides felis, topical; contact with treated filter disk in vial, about 24-30 hours; mM = concentration of the DMSO solution, about 1 μL applied; read-out: LD50 (mM), CO Fleas. Here is the method: This example describes an in vivo assay to screen compounds for their ability to kill cat fleas via contact.
Test compounds were dissolved in dimethylsulfoxide (DMSO) at concentrations ranging from about 0.05 mM to about 100 mM. About 1 μL of dissolved test compound was dispensed onto a 6 mm (diameter) GF/C filter disk (filter material available from Whatman Inc., Clifton, N.J.) in the bottom of a 4 mL screw-top glass vial and allowed to air dry 24-48 hours. Positive control vials were prepared in the same manner except that no test compounds were dissolved in the DMSO. About 20 newly emerged cat fleas (Ctenocephalides felis) were sedated by refrigeration at 0-4° C. and transferred to each vial. Each vial was sealed with a thin, perforated Teflon™ septum secured by an open top screw cap and held vertically in the dark. After about 24-30 hours, the healthy, moribund, and dead cat fleas in each vial were counted. The percentage of dead cat fleas in each vial was then calculated using the formula M=100(D−(FC/100))/(F−(FC/100)), in which M is the percentage of dead cat fleas due to the addition of the test compound, D is the number of dead cat fleas in the test vial, F is the total number of cat fleas in the test vial, and C is the percentage of dead cat fleas in the control vials.

As to `CC1CCc2nn(-c3c(Cl)cc(C(F)(F)F)cc3Cl)cc21` (racemic) [Compound 42, 2-[2,6-Dichloro-4-(trifluoromethyl)phenyl]-4-methyl-2,4,5,6-tetrahydrocyclopenta[c]pyrazole], the “Compounds with the most activity (housefly 3H-EBOB binding)” value (from here on “Compounds with the most activity”) at Housefly GABA receptors is recorded as “most activity”. The compound `F[C@@H]1Cc2cn(-c3c(Cl)cc(C(F)(F)F)cc3Cl)nc2[C@@H]1F` (relative stereo) [Compound 81, cis-2-[2,6-Dichloro-4-(trifluoromethyl)phenyl]-5,6-difluoro-2,4,5,6-tetrahydrocyclopenta[c]pyrazole] showed an IC50 in test [1] of 1000 nM. Also, in test [2], the LC50 stood at 1.5 mM. For `Nc1c2c(nn1-c1c(Cl)cc(C(F)(F)F)cc1Cl)CSC2` [Compound 1, 2-[2,6-Dichloro-4-(trifluoromethyl)phenyl]-4,6-dihydrothieno-[3,4-c]pyrazole-3-ylamine], the “Compounds with the most activity” value on Housefly GABA receptors is on record as “most activity”. In turn, `FC(F)(F)c1cc(Cl)c(-n2cc3c(n2)CCSC3)c(Cl)c1` [Compound 10, 2-[2,6-Dichloro-4-(trifluoromethyl)phenyl]-2H,4H,6H,7H-thiano[4,3-c]pyrazole] displayed an IC50 in test [1] of 3800 nM. Besides, the “Compounds with the most activity” value on Housefly GABA receptors was “most activity”. `CC1(C)CCc2cn(-c3c(Cl)cc(C(F)(F)F)cc3Cl)nc21` [Compound 12, 2-[2,6-Dichloro-4-(trifluoromethyl)phenyl]-6,6-dimethyl-2,4,5,6-tetrahydrocyclopenta[c]pyrazole] had an IC50 in test [1] of 30000 nM. At Housefly GABA receptors, the “Compounds with the most activity” value is “most activity”. As for `FC(F)(F)c1cc(Cl)c(-n2cc3sccc3n2)c(Cl)c1` [Compound 22, 2-[2,6-Dichloro-4-(trifluoromethyl)phenyl]-2H-thieno[3,2-c]pyrazole], at Housefly GABA receptors, the “Compounds with the most activity” value is on record as “most activity”. Regarding `FC1Cc2nn(-c3c(Cl)cc(C(F)(F)F)cc3Cl)cc2C1(F)F` (stereo not shown) [Compound 56, 2-[2,6-Dichloro-4-(trifluoromethyl)phenyl]-4,4,5-trifluoro-2,4,5,6-tetrahydrocyclopenta[c]pyrazole], in test [1], the IC50 was 1000 nM. For the same compound, the LC50 in test [2] came to 1 mM. The corresponding values for `CC1(O)c2cn(-c3c(Cl)cc(C(F)(F)F)cc3Cl)nc2CC1F` (stereo not shown) [Compound 57, 2-[2,6-Dichloro-4-(trifluoromethyl)phenyl]-5-fluoro-4-methyl-2,4,5,6-tetrahydrocyclopenta[c]pyrazol-4-ol] are 25000 nM and 3.8 mM. The corresponding values for `FC(F)(F)c1cc(Cl)c(-n2cc3c(n2)CCC3(F)F)c(Cl)c1` [Compound 61, 2-[2,6-dichloro-4-(trifluoromethyl)phenyl]-4,4-difluoro-2,4,5,6-tetrahydrocyclopenta[c]pyrazole] are 1000 nM and 5 mM. The compound `FC1c2nn(-c3c(Cl)cc(C(F)(F)F)cc3Cl)cc2C(F)(F)C1F` (stereo not shown) [Compound 89, 2-[2,6-Dichloro-4-(trifluoromethyl)phenyl]-4,4,5,6-tetrafluoro-2,4,5,6-tetrahydrocyclopenta[c]pyrazole] registered an IC50 in test [1] of 180 nM. Moreover, the LC50 in test [2] was less than 0.5 mM. Take `CC1(O)c2cn(-c3c(Cl)cc(C(F)(F)F)cc3Cl)nc2CC1(F)F` (stereo not shown) [Compound 93, 2-[2,6-Dichloro-4-(trifluoromethyl)phenyl]-5,5-difluoro-4-methyl-2,4,5,6-tetrahydrocyclopenta[c]pyrazol-4-ol]: the IC50 in test [1] amounted to 2300 nM; at Housefly GABA receptors (displacement of 5.2 nM 3H-EBOB, housefly head neuronal membranes, about 45 min at about 24° C., read-out: IC50 (nM), Fly Head), 100 nM.
